What was measured:
[1] = target: T1, Type-2 angiotensin II receptor (Homo sapiens) (UniProt P50052); experiment: In vitro antagonist activity against the Angiotensin II (type 2) receptor.; type: functional
T1 sequence (whole entry): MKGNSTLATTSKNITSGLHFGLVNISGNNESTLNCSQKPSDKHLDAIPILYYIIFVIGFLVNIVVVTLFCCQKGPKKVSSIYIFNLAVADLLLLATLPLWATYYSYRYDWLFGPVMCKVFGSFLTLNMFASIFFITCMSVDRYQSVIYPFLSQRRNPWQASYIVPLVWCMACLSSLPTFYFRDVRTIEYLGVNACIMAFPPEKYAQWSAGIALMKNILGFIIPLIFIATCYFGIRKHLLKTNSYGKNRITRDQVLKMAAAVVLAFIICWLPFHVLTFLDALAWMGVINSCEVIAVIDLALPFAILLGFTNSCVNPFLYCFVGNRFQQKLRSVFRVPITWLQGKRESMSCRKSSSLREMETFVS

[2] = target: Angiotensin II receptor (Rattus norvegicus) (UniProt P29089+P25095+P35351); experiment: Duration of action as time for pressor response to fall below 30% for a single bolus by intravenous dose; type: functional, organism-based
Rattus norvegicus [3] = experiment: Compound was evaluated in vivo for inhibition of the AII pressor response in normotensive rat at dose 1 mg/kg, iv after 0.9 hour; type: functional
Rattus norvegicus [4] = experiment: The duration of action is expressed as the time for the % inhibition of pressor response to fall below 30% for a single bolus of the drug administered intravenously.; type: functional
Rattus norvegicus [5] = experiment: Compound was evaluated in vivo for inhibition of the AII pressor response in normotensive rat at dose 1 mg/kg, iv after 0.2 hour; type: functional
Rattus norvegicus [6] = experiment: In vivo for inhibition of the AII pressor response in normotensive rat at dose 0.3 mg/kg(iv) after 0.8 hour; type: functional
[7] = target: T2, Type-1 angiotensin II receptor (Oryctolagus cuniculus, UniProt P34976); experiment: Displacement of [125I]Sar1-Ile8-AII (without BSA) from type 1 Angiotensin II receptor of rabbit aorta; type: tissue-based
T2 sequence (P34976 whole entry): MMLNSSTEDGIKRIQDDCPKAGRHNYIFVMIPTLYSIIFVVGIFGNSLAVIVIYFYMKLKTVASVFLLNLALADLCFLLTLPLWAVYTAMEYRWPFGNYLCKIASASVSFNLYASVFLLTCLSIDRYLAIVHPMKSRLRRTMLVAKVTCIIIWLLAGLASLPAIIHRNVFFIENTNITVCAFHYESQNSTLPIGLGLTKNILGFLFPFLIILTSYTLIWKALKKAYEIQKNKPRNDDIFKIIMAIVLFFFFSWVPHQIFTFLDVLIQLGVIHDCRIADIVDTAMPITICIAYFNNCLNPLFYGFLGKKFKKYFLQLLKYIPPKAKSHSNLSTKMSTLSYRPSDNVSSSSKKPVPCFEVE

[8] = target: T2, Type-1 angiotensin II receptor; experiment: Ability to displace [125I]Sar1-Ile8-AII from angiotensin II receptor, type 1 in rabbit aorta in presence of 0.2% bovine serum albumin (BSA) was determined in vitro; type: tissue-based
Rattus norvegicus [9] = experiment: The duration of action is expressed as the time for the % inhibition of pressor response to fall below 30% for a single bolus of the drug administered perorally.; type: functional
Rattus norvegicus [10] = experiment: Compound was evaluated in vivo for inhibition of the AII pressor response in normotensive rat at dose 0.3 mg/kg, iv after 3.5 hr; type: functional
Rattus norvegicus [11] = experiment: Compound was evaluated in vivo for inhibition of the AII pressor response in normotensive rat at dose 0.3 mg/kg, iv after 6 hours; type: functional
Rattus norvegicus [12] = experiment: Compound was evaluated in vivo for inhibition of the AII pressor response in normotensive rat at dose 0.3 mg/kg, po; type: functional

Row | SMILES | Activity [1] | Duration [2] | inhibition in vivo at 1 mg/kg (Rattus norvegicus [3]) | Duration (Rattus norvegicus [4]) | inhibition in vivo at 1 mg/kg (Rattus norvegicus [5]) | inhibition in vivo at 0.3 mg/kg (Rattus norvegicus [6]) | IC50 [7] | IC50 [8] | Duration (Rattus norvegicus [9]) | inhibition in vivo at 0.3 mg/kg (Rattus norvegicus [10]) | inhibition in vivo at 0.3 mg/kg (Rattus norvegicus [11]) | inhibition in vivo at 0.3 mg/kg (Rattus norvegicus [12])
1 | CCCCc1nc2ccc(NC(C)=O)cc2c(=O)n1Cc1ccc(-c2ccccc2-c2nn[nH]n2)cc1 | > 1000 nM | 0.9 h | 97% | – | – | – | – | – | – | – | – | –
2 | CCCCc1nc2ccc(OC)cc2c(=O)n1Cc1ccc(-c2ccccc2-c2nn[nH]n2)cc1 | > 1000 nM | – | – | 0.2 h | 49% | – | – | – | – | – | – | –
3 | CCCCc1nc2ccc(N(C)C(=O)N(C)C(C)C)cc2c(=O)n1Cc1ccc(-c2ccccc2-c2nn[nH]n2)cc1 | > 1000 nM | 0.8 h | – | – | – | 70% | – | – | – | – | – | –
4 | CCCCc1nc2ccc(NC(=O)NC(C)C)cc2c(=O)n1Cc1ccc(-c2ccccc2-c2nn[nH]n2)cc1 | > 1000 nM | > 6 h | – | – | – | – | 0.5 nM | 0.75 nM | 0 h | 86% | 86% | 0%
